Columns and labels:
Format in all cases: cell-based
BE(2)-C cells [1] = test: High-content screen: detection and quantification of neurite outgrowth; design: key: neurite length normalized to the mean of its plate; details: 25 nM miRNA mimic, 4 days transfection, normalized to plate mean
Protocol: FIG. 2A-2C. HCS screening of miRNA mimics identifies miRNAs that induce neurite outgrowth in BE(2)-C cells. (A-B) 2,500 cells were reverse-transfected with 25 nM miRNA mimics in 96-well plates. After 4 days transfection, relative neurite lengths were quantified as above. (A) The distribution of post-normalized neurite length measurements (grey histogram) for individual miRNA mimics from the screen and the fitted Gamma distribution curve (␣=3.27, ┘=0.444) (B) Correlation between two independent neurite length measurements for one library plate. Cells were transfected with 25 nM mimics in two independent 96-well plates. Normalized neurite lengths were measured as above. Correlation of neurite length between the two plates was analyzed using two-tailed Pearson Correlation with p<0.05 considered significant. (C) The distribution of the neurite lengths for untreated BE(2)-C cells. 2,500 Cells were plated into each well in 96 well plates. After 4 days of culture, neurite lengths were analyzed as above. Shown are the neurite length distribution histogram, the empirical density curve, and the fitted Gamma distribution curve (␣=30.23, ␣=0.033).
Detection and Quantification of Neurite Outgrowth. Cells were plated and treated in 96-well plates. For detecting neurite outgrowth, cells were placed into ZOOM IncuCyte Imaging System (Essen BioScience) and cell images were taken under 20× microscopic magnification. For detecting neurite outgrowth in a time-dependent manner, cell images were taken every 6 h. The neurite lengths associated with each treatment were calculated using the neurite definition defined for each specific cell line using the NeuroTrack system (Essen BioScience).
Analysis of HCS Data. The relative neurite length associated with cells in each well on the screen plates was determined as above. In order to allow for plate-to-plate comparison, neurite length associated with each well in each plate was first internally normalized to the mean of the corresponding plate, and multiple screen plates were then aggregated together to generate the neurite length distribution. The data were then further analyzed to determine the distribution of the unaffected cells as described below, and to identify differentiation-inducing miRNA mimics.
Statistical Analysis. For HCS, p-value for neurite length associated with each miRNA mimic was evaluated by assuming the distribution of neurite lengths follows Gamma distribution, and false Discovery Rate (FDR) was determined by Benjamini-Hochberg correction method for multiple tests (Benjamin, Journal of the Royal Statistical Society Series B (Methodological), 1995, 57(1):12). […] For all other conditions, the statistical significance for each treatment was determined using t-test by comparing the treatment group with control, with p<0.05 considered statistically significant.

BE(2)-C cells [2] = test: Cell Viability Assay (CellTiter-Glo)
Protocol: Cell Viability Assay. Cells were plated in 96-well format and treated as specified. After culturing for 120 h, cell viability was determined using the CellTiter-Glo Luminescent Cell Viability Assay (Promega).

[3] = test system: GAP43, NSE and β-TUBULIN III; test: Western blots of differentiation markers in BE(2)-C cells; details: ATRA 5 days, dose-dependent
Protocol: (§1) Western Blots. Cell lysates were prepared using RIPA buffer. Protein concentration was determined using the Pierce BCA assay (Thermo Fisher Scientific). For electrophoresis, equal amounts of cell lysate were resolved by SDS-PAGE and transferred to Immun-Blot PVDF membranes (Bio-Rad Laboratories). Membranes were blocked and probed with primary antibodies to specific proteins. Bound antibodies were detected with secondary antibodies conjugated with horseradish peroxidase (HRP) visualized by enhanced chemiluminescent (ECL) substrate (Pierce).

PCNA and Ki67 = test: Western blots of cell proliferation markers in BE(2)-C cells; details: ATRA 5 days, dose-dependent
Protocol: as §1

[4] = test system: cleaved CASPASE 3 and PARP; test: Western blots of apoptosis markers in BE(2)-C cells; details: ATRA 5 days, dose-dependent
Protocol: as §1

BE(2)-C cells [5] = test: High-content screen: detection and quantification of neurite outgrowth; details: ATRA vs carrier (DMSO), 5 days

Compound | Neurite length (mean ± SD) (BE(2)-C cells [1]) | other results
hsa-miR-34b-Sp: miRNA mimic, mature sequence UAGGCAGUGUCAUUAGCUGAUUG (SEQ ID NO: 12) (listed as RNA, chemistry not given here) | 8.41 ± 2.16 | –
hsa-miR-3937: miRNA mimic, mature sequence ACAGGCGGCUGUAGCAAUGGGGG (SEQ ID NO: 17) (listed as RNA, chemistry not given here) | 6.93 ± 1.05 | –
CC1=C(/C=C/C(C)=C/C=C/C(C)=C\C(=O)O)C(C)(C)CCC1 [cis-RA, 13-cis retinoic acid] | – | Cell viability when reaching plateau (BE(2)-C cells [2]; treated for 5 days): 42.6±3.7%
CC1=C(/C=C/C(C)=C/C=C/C(C)=C/C(=O)O)C(C)(C)CCC1 [ATRA, all-trans retinoic acid] | – | Cell viability (BE(2)-C cells [2]; 5 days, dose-dependent): decreases cell viability; Expression of neuroblastoma differentiation markers (GAP43, NSE, β-TUBULIN III) [3]: stimulates expression of neuroblastoma differentiation markers; Expression of cell proliferation markers (PCNA, Ki67) (PCNA and Ki67): inhibits expression of cell proliferation markers; Expression of apoptosis markers (cleaved CASPASE 3, PARP) [4]: increases expression of apoptosis markers; Relative neurite length compared to control (BE(2)-C cells [5]): significantly increases the relative neurite length
hsa-miR-107: miRNA mimic, mature sequence AGCAGCAUUGUACAGGGCUAUCA (SEQ ID NO: 13) (AGCAGCAUUGUACAGGGCUAUCA(3); as printed in the source, key not given here) | 7.60 ± 1.98 | –
hsa-miR-34a-5p: miRNA mimic, mature sequence UGGCAGUGUCUUAGCUGGUUGU (SEQ ID NO: 7) (UGGCAGUGUCUUAGCUGGUUGU(2); as printed in the source, key not given here) | 9.49 ± 3.18 | –
hsa-miR-137: miRNA mimic, mature sequence UUAUUGCUUAAGAAUACGCGUAG (SEQ ID NO: 16) (listed as RNA, chemistry not given here) | 7.03 ± 1.36 | –
hsa-miR-135b-5p: miRNA mimic, mature sequence UAUGGCUUUUCAUUCCUAUGUGA (SEQ ID NO: 6) (listed as RNA, chemistry not given here) | 14.02 ± 4.29 | –
hsa-miR-3714: miRNA mimic, mature sequence GAAGGCAGCAGUGCUCCCCUGU (SEQ ID NO: 14) (listed as RNA, chemistry not given here) | 7.56 ± 1.91 | –
hsa-miR-103a-3p: miRNA mimic, mature sequence AGCAGCAUUGUACAGGGCUAUGA (SEQ ID NO: 8) (AGCAGCAUUGUACAGGGCUAUGA(3); as printed in the source, key not given here) | 9.43 ± 2.67 | –
hsa-miR-450b-3p: miRNA mimic, mature sequence UUGGGAUCAUUUUGCAUCCAUA (SEQ ID NO: 9) (listed as RNA, chemistry not given here) | 9.26 ± 2.64 | –
hsa-miR-449b-5p: miRNA mimic, mature sequence AGGCAGUGUAUUGUUAGCUGGC (SEQ ID NO: 15) (AGGCAGUGUAUUGUUAGCUGGC(2); as printed in the source, key not given here) | 7.40 ± 1.85 | –
hsa-miR-449a: miRNA mimic, mature sequence UGGCAGUGUAUUGUUAGCUGGU (SEQ ID NO: 10) (UGGCAGUGUAUUGUUAGCUGGU(2); as printed in the source, key not given here) | 9.16 ± 2.47 | –
